US4716172A, “4-substituted octahydroquinolizine analgesic compounds and octahydroquinolizinium intermediates” (McNeilab, Inc., priority 1986, dated 1987)
Where two headings read alike, the source gives them in different places.

Tested on: acetylcholine-bromide-induced abdominal constriction (writhing)
Test: Mouse Acetylcholine-Bromide-Induced Abdominal Constriction Assay
Type: in vivo
Settings: for ED50: po, read-out: ED50 (dose which inhibits writhing by 50%)
Procedure: Mouse Acetylcholine-Bromide-Induced Abdominal Constriction Assay:
The mouse acetylcholine-induced abdominal constriction assay, as described by Collier et al. in Brit. J. Pharmacol. Chem. Ther., 32:295-310, 1968, with minor modifications was the test used to assess analgesic potency. The test drugs or appropriate vehicle were administered orally (p.o.) and 30 minutes later the animals received an intraperitoneal (i.p.) injection of 5.5 mg/kg acetylcholine bromide (Matheson, Coleman and Bell, East Rutherford, NJ). The mice were then placed in groups of four into glass bell jars and observed for a ten minute observation period for the occurrence of a writhe (defined as a wave of constriction and elongation passing caudally along the abdominal wall, accompanied by a twisting of the trunk and followed by extension of the hind limbs). The percent inhibition of writhing (equated to % analgesia) was calculated as follows: The % inhibition of writhing, i.e., % analgesia, is equal to the difference between the No. of control animals writhing and the No. of drug-treated animals writhing times 100 divided by the No. of control animals writhing.
At least 20 animals were used for control and in each of the drug treated groups. Four doses were used to determine each dose response curve and ED50 (that does which inhibits writhing by 50%). The ED50 values and their 95% fiducial limits were determined by a computer assisted probit analysis.

| SMILES | ED50 (Mus musculus) [mg/kg] | further results |
| --- | --- | --- |
| Clc1cccc(Cl)c1[C@@H]1CCC[C@@H]2CCCCN21.[O-][Cl+3]([O-])([O-])O (relative stereo) [Example 1e, trans-4-(2,6-dichlorophenyl)octahydro-2H-quinolizine perchlorate] | 5 | – |
| COc1cccc([C@@H]2CCC[C@@H]3CCCCN32)c1.Cl (relative stereo) [Example 3e, trans-Octahydro-4-(3-methoxyphenyl)-2H-quinolizine Hydrochloride] | – | % inhibition of writhing (% analgesia), printed in ED50 column (mouse, p.o., at 30 mg/Kg, 30 minutes before i.p. 5.5 mg/kg acetylcholine bromide, ten minute observation): 40% |
| Cl.Ic1ccccc1[C@@H]1CCC[C@@H]2CCCCN21 (relative stereo) [Example 4e, trans-Octahydro-4-(2-iodophenyl)-2H-quinolizine Hydrochloride] | 30 | – |
| Cl.c1ccc(Oc2ccc([C@@H]3CCC[C@@H]4CCCCN43)cc2)cc1 (relative stereo) [Example 2e, trans-Octahydro-4-(4-phenoxyphenyl)-2H-quinolizine Hydrochloride] | – | ED50 (mouse, p.o., 30 minutes before i.p. 5.5 mg/kg acetylcholine bromide, ten minute observation): 8 mg/kg |
| Brc1ccccc1[C@@H]1CCC[C@@H]2CCCCN21.Cl (relative stereo) [Example 5e, trans-4(2-Bromophenyl)octahydro-2H-quinolizine Hydrochloride] | 23 | – |
